Test results reported in US12065404B2, “C4-carboxylic acid-substituted tryptamine derivatives and methods of using” (priority 2022, dated 2024).
Several values for one entry are separate records, joined by “and”; a condition that tells them apart may be missing. Identical values can stand only once.

Experiments:
[1] = Mouse pharmacokinetic (PK) study, parent compound and psilocin metabolite in plasma; assay type: in vivo, C57Bl/6 mice; details: for bioavailability: male, C57Bl/6, mouse, plasma, po, no footnote on basis (Table 36B)
Text: Briefly, the procedure was as follows. […] 19, 2022.

GABAA = GABAA (Homo sapiens, UniProt P14867+P18507+P47870); assay type: cell-based; details: ion channel
Sequence of GABAA (P14867 28-456): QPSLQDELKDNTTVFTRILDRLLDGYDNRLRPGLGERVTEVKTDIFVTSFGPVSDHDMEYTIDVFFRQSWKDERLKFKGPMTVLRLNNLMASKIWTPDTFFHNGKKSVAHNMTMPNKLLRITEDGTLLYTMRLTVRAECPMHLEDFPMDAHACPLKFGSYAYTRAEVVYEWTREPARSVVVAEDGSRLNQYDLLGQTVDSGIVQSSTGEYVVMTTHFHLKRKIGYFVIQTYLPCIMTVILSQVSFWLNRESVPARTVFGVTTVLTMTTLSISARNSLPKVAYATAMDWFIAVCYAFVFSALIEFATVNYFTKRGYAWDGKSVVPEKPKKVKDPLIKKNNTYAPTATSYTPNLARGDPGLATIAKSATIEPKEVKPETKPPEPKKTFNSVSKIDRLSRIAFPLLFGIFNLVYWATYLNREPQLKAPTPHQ
Sequence of GABAA (P47870 26-512): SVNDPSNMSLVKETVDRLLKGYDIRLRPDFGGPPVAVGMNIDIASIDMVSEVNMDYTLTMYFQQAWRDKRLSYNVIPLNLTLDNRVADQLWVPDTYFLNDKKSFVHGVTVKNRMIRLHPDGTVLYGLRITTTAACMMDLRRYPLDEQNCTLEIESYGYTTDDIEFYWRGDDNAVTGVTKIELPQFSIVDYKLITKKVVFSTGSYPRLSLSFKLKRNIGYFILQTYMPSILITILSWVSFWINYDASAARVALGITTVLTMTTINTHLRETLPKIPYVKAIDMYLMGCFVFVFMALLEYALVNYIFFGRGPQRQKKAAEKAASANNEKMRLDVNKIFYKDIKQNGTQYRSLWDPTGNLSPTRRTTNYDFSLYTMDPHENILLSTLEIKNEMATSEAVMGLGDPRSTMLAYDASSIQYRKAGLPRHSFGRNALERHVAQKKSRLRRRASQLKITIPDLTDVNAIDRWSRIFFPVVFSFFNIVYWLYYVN
Sequence of GABAA (P18507 40-475): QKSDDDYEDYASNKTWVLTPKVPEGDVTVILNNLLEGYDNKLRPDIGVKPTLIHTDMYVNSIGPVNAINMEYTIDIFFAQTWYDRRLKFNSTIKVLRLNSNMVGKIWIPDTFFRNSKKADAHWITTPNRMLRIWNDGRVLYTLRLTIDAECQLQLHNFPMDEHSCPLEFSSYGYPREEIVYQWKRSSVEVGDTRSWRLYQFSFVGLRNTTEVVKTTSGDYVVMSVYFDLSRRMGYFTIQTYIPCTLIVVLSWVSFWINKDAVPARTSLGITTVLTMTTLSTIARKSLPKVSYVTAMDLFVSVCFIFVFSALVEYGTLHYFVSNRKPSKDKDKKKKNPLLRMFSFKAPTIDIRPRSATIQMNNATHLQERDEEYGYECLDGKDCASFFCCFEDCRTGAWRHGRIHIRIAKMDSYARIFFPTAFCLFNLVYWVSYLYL

5-HT1A receptor = target: T1, 5-HT1A receptor (Homo sapiens, UniProt P08908); assay: cAMP-Glo assay of 5-HT1A receptor modulation, +5-HT1A (CHO-K1/5-HT1A/Ga15) vs -5-HT1A (CHO-K1/Ga15) cells; assay type: cell-based; set-up: dose or concentration left out as unconfirmed; details: +5-HT1A vs -5-HT1A cell cultures stimulated with forskolin, increasing ligand concentrations
T1 construct: host or cells: CHO-K1 (co-expressing Ga15)
T1 sequence (P08908 1-422): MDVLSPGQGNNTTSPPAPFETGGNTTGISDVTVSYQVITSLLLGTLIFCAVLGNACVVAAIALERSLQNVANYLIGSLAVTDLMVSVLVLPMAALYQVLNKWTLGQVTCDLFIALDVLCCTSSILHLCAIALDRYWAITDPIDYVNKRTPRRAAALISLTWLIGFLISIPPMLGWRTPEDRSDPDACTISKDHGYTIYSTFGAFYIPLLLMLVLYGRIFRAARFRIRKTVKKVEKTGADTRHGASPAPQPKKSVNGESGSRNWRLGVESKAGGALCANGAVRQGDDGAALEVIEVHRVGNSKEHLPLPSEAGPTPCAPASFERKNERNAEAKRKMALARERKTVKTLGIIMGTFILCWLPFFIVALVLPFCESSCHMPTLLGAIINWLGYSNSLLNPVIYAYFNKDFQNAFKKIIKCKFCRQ

[2] = target: T2, neuronal 5-HT2A receptor (5-HT2AR) (Mus musculus, UniProt P35363); assay: Drug-induced Head Twitch Response (HTR) in mice; assay type: in vivo, C57BL/6-Elite mice; details: 1 mg/kg i.p., 15-to-30-minute window post-drug, relative to vehicle-treated control mice
T2 construct: HTR was measured in mice treated with a control and test compounds; tissue Charles River; host or cells: live C57BL/6-Elite mice (neuronal receptor)
T2 sequence (P35363 whole entry): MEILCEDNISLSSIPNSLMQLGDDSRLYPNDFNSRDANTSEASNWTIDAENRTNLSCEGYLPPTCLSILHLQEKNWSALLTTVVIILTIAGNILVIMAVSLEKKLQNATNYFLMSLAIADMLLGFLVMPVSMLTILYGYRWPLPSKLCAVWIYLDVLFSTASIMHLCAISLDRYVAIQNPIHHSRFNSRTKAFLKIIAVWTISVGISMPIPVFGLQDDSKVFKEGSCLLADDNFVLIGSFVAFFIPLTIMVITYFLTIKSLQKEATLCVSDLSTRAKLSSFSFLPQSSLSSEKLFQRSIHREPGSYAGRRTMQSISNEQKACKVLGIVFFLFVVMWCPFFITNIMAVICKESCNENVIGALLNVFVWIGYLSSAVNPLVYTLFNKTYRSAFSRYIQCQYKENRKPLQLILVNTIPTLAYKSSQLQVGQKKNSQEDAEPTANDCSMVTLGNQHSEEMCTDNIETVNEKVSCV

[3] = administered compound itself in plasma, 1 mg/kg i.v., mean ± SD
[4] = administered compound itself in plasma, 1 mg/kg oral, individual animals, 1 mg/kg
[5] = administered compound itself in plasma, 1 mg/kg oral, mean ± SD
[6] = administered compound itself in plasma, 3 mg/kg oral, individual animals, 3 mg/kg
[7] = administered compound itself in plasma, 3 mg/kg oral, mean ± SD
[8] = plasma C(XX), 3 mg/kg p.o. C(XX), mean
[9] = plasma C(XX), 10 mg/kg oral C(XX), animals M58-M60, 10 mg/kg
[10] = plasma C(XX), 10 mg/kg oral C(XX), mean (n = 2)
[11] = plasma C(XX), 10 mg/kg oral C(XX), mean ± SD
[12] = plasma C(XX), 10 mg/kg oral C(XX), mean ± SD, 10 mg/kg

## CN(C)CCc1c[nH]c2cccc(OC(=O)c3cccc4c3OCCO4)c12 [C(XX)]
[1]; [3]
  AUC0-inf/Dose: 53.0 ± 8.26 kg·ng·h/mL/mg
  AUC0-tlast/Dose: 52.8 ± 8.30 kg·ng·h/mL/mg
  MRT0-inf: 24.7 ± 2.27 min
[1]; [4]
  Cmax: 0.509 ng/mL and 0.648 ng/mL
  Cmax/Dose: 0.702 kg·ng/mL/mg and 0.509 kg·ng/mL/mg and 0.648 kg·ng/mL/mg
  tmax: 15 min
[1]; [5]
  Cmax: 0.620 ± 0.0996 ng/mL
  Cmax/Dose: 0.620 ± 0.0996 kg·ng/mL/mg
[1]; [6]
  AUC0-inf: 1.72 ng·h/mL and 1.53 ng·h/mL
  AUC0-inf/Dose: 0.433 kg·ng·h/mL/mg and 0.572 kg·ng·h/mL/mg and 0.510 kg·ng·h/mL/mg
  AUC0-tlast: 1.48 ng·h/mL and 1.42 ng·h/mL
  AUC0-tlast/Dose: 0.406 kg·ng·h/mL/mg and 0.494 kg·ng·h/mL/mg and 0.474 kg·ng·h/mL/mg
  Apparent t1/2: 40.1 min and 28.9 min
  Cmax: 1.72 ng/mL and 1.93 ng/mL
  Cmax/Dose: 0.497 kg·ng/mL/mg and 0.573 kg·ng/mL/mg and 0.643 kg·ng/mL/mg
  MRT0-inf: 64.8 min and 49.4 min
[1]; [7]
  AUC0-inf: 1.51 ± 0.210 ng·h/mL
  AUC0-inf/Dose: 0.505 ± 0.0700 kg·ng·h/mL/mg
  AUC0-tlast: 1.37 ± 0.137 ng·h/mL
  AUC0-tlast/Dose: 0.458 ± 0.0457 kg·ng·h/mL/mg
  Cmax: 1.71 ± 0.220 ng/mL
  Cmax/Dose: 0.571 ± 0.0734 kg·ng/mL/mg
[1]; 3 mg/kg, 3 mg/kg oral, individual animals
  bioavailability: 0.816%
[1]; 3 mg/kg, 3 mg/kg oral, mean ± SD
  bioavailability: 0.953 ± 0.132%
[1]; plasma C(XX), 1 mg/kg i.v. C(XX), mean
  AUC0-tlast/Dose: 52.8 kg·ng·h/mL/mg
[1]; plasma C(XX), 1 mg/kg p.o. C(XX), mean
  Cmax/Dose: 0.620 kg·ng/mL/mg
[1]; [8]
  AUC0-tlast/Dose: 0.458 kg·ng·h/mL/mg
  Cmax/Dose: 0.571 kg·ng/mL/mg
  F: 0.953%
[1]; plasma C(XX), 10 mg/kg oral C(XX), animals M58-M60
  tmax: 15 min
[1]; [9]
  AUC0-inf: 5.40 ng·h/mL and 10.7 ng·h/mL
  AUC0-tlast: 5.65 ng·h/mL and 4.99 ng·h/mL and 9.16 ng·h/mL
  AUC0-tlast/Dose: 0.565 kg·ng·h/mL/mg and 0.499 kg·ng·h/mL/mg and 0.916 kg·ng·h/mL/mg
[1]; plasma C(XX), 10 mg/kg oral C(XX), animals M58-M60, AUC0-tlast used, 10 mg/kg
  F: 1.07% and 0.941% and 1.73%
[1]; [10]
  AUC0-inf: 8.03 ng·h/mL
  Apparent t1/2: 186 min
  MRT0-inf: 131 min
[1]; [11]
  AUC0-tlast: 6.60 ± 2.24 ng·h/mL
  Cmax: 7.47 ± 3.92 ng/mL
  tmax: 15 ± 0 min
[1]; [12]
  AUC0-tlast/Dose: 0.660 ± 0.224 kg·ng·h/mL/mg and 0.660 kg·ng·h/mL/mg
  Cmax/Dose: 0.747 ± 0.392 kg·ng/mL/mg and 0.747 kg·ng/mL/mg
[1]; plasma C(XX), 10 mg/kg oral C(XX), mean ± SD, AUC0-tlast used, 10 mg/kg
  F: 1.24 ± 0.423% and 1.24%
GABAA; blocker (BL)
  IC50: > 100 µM
GABAA; opener (OP)
  EC50: > 100 µM
5-HT1A receptor
  5-HT1A receptor modulation (reduction of cAMP levels): significant receptor modulation
[2]
  Incidences of Head Twitch Response (HTR): Elevated incidences of HTR
